“And” between values parts separate entries of the source, which are not always exact repeats. Identical values can stand only once.
Assays:
[1] = system: human embryonic stem cells (H9 line); assay: High content screening assay: cell number (proliferative response); type: cell-based; details: for fold induction at 10 µM: Homo sapiens, Embryonic stem cell, read-out: Proliferative Response, Fold over Wnt 3a/AA control
In short: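 H9 hESCs on MATRIGEL treated days 1-2 with 10 μM compound in DMEM:F12, 0.5% FCS, 100 ng/ml activin A; days 3-4 with 2% FCS plus activin A without compound. Fixed cells immunostained for Sox17 or HNF-3beta with Draq5 nuclear counterstain. Cell number and staining intensity quantified by high-content imaging, 12 fields/well.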

[2] = system: human embryonic stem cells (H9 or H1 lines); assay: Plate reader (MTS) proliferation assay; type: cell-based; details: for Average: average of replicate raw data; for activity at 10 µM: Homo sapiens, Embryonic stem cell, 96 h; for activity at 10 µM / % Control Value (proliferation): 10 μM test compound with 100 ng/ml activin A on days 1-2, MTS OD490 on day 4, vs Activin A/Wnt3a positive control, strong and moderate hits; for Raw Data: replicate wells, plate reader proliferation screen of GSK-3B inhibitors
In short: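 H9 or H1 cells on Matrigel, washed, then given DMEM:F12 with 0.5% FCS, 100 ng/ml activin A and 10 μM compound (days 1–2), then 2% FCS plus activin A (days 3–4). MTS added day 4, OD490 read after 1.5–4 h at 37 °C; triplicates as percent of activin A/Wnt3a control.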

[3] = cell number in the wells analysed for HNF-3b expression
[4] = cell number in the wells analysed for SOX-17 expression
[5] = 10 μM test compound with 100 ng/ml activin A on days 1-2, H9, total cell number by IN Cell Analyzer, strong and moderate hits

SMILES | Proliferative Response Total cells [1, 3] | Proliferative Response Total cells [1, 4] | Average [2] | activity at 10 µM [2] | fold induction at 10 µM [1, 5] | Proliferative Response Fold over Wnt 3a/AA control ([1]; cell number in the wells analysed for HNF-3b expression, normalised to Wnt 3a/AA control) | Proliferative Response Fold over Wnt 3a/AA control ([1]; cell number in the wells analysed for SOX-17 expression, normalised to Wnt 3a/AA control) | % Control Value (proliferation) [2] | Raw Data [2] | Proliferative Response Fold over Wnt 3a/AA control [1, 5] | Average (of Raw Data) ([2]; plate reader raw signal, mean of replicate wells, proliferation of human embryonic stem cells) | % Control ([2]; proliferation of human embryonic stem cells, AA/Wnt3a = 100.0, no cells = 0.0)
O=C1NC(=O)C(c2cn(CCCO)c3ncccc23)=C1c1cn(CCO)cn1 [Compound 183, 3-[1-(2-Hydroxyethyl)-1H-imidazol-4-yl]-4-[1-(3-hydroxypropyl)-1H-pyrrolo[2,3-b]pyridin-3-yl]-1H-pyrrole-2,5-dione] | 5 | 7 | 0.2321 | – | – | – | – | – | – | – | – | –
O=C1NC(=O)C(c2cn(CCCO)c3ncccc23)=C1c1cn(CCCO)cn1 [Compound 182, 3-[1-(3-Hydroxypropyl)-1H-imidazol-4-yl]-4-[1-(3-hydroxypropyl)-1H-pyrrolo[2,3-b]pyridin-3-yl]-1H-pyrrole-2,5-dione] | 425 | 20 | 0.2828 | – | – | – | – | – | – | – | – | –
CN(C)c1cccc(-n2cc(C3=C(c4nn(CCO)c5ccccc45)C(=O)NC3=O)c3ccccc32)c1 [Compound 145, 3-{1-[3-(Dimethylamino)phenyl]-1H-indol-3-yl}-4-[1-(2-hydroxyethyl)-1H-indazol-3-yl]-1H-pyrrole-2,5-dione] | 2907 | 4914 | 0.9191 | 61.1% | – | – | – | – | – | – | – | –
O=C1NC(=O)C(c2cn(CCCO)c3ncccc23)=C1c1ccn(CCCO)n1 [Compound 185, 3-[1-(3-Hydroxypropyl)-1H-pyrazol-3-yl]-4-[1-(3-hydroxypropyl)-1H-pyrrolo[2,3-b]pyridin-3-yl]-1H-pyrrole-2,5-dione] | – | – | 0.2632 | – | 0.944 | – | – | – | – | – | – | –
CN(C)CCCn1cc(C2=C(c3cccc4ccccc34)C(=O)NC2=O)c2cccnc21 [Compound 175, 3-{1-[3-(Dimethylamino)propyl]-1H-pyrrolo[2,3-b]pyridin-3-yl}-4-naphthalen-1-yl-1H-pyrrole-2,5-dione] | 42 | 1 | 0.1467 | – | – | – | – | – | – | – | – | –
Cn1cc(C2=C(c3nn(CCCn4ccnn4)c4ccccc34)C(=O)NC2=O)c2cc(Cl)ccc21 [Compound 232, 3-(5-Chloro-1-methyl-1H-indol-3-yl)-4-{1-[3-(1H-1,2,3-triazol-1-yl)propyl]-1H-indazol-3-yl}-1H-pyrrole-2,5-dione] | 14950 | 16652 | 1.8323 | 132% | 1.09 | – | – | – | – | – | – | –
O=C1NC(=O)C(c2nn(CCO)c3ccccc23)=C1c1cn(-c2cncnc2)c2ccccc12 [Compound 226, 3-[1-(2-Hydroxyethyl)-1H-indazol-3-yl]-4-(1-pyrimidin-5-yl-1H-indol-3-yl)-1H-pyrrole-2,5-dione] | 7650 | 9716 | 1.6825 | 120% | 0.634 | – | – | – | – | – | – | –
O=C1NC(=O)C2=C1Nc1cccc(c1)OCCC/C=C\CCCOc1cccc2c1 [Compound 233, (11Z)-8,9,10,13,14,15-Hexahydro-2,6:17,21-di(metheno)pyrrolo[3,4-h][1,15,7]dioxazacyclotricosine-22,24(1H,23H)-dione] | 4357 | 6470 | 1.3325 | 93% | – | – | – | – | – | – | – | –
O=C1NC(=O)C2=C1c1cn(c3ccccc13)CCOCCOCCn1cc2c2ccccc21 [Compound 164, 6,7,9,10,12,13-Hexahydro-20H-5,23:14,19-di(metheno)dibenzo[h,n]pyrrolo[3,4-k][1,4,7,16]dioxadiazacyclooctadecine-20,22(21H)-dione] | 67 | 12 | 0.6350 | – | – | 0.05259 fold | 0.007385 fold | 68.2% | 0.6923 and 0.5994 and 0.6134 | – | – | –
O=C1NC(=O)C2=C1c1cn(c3ncccc13)CCOCCOCCOCCOCCn1cc2c2cccnc21 [Compound 169] | – | – | 0.7138 | – | – | – | – | 76.7% | 0.5876 and 0.6384 and 0.9154 | 1.0764 Fold over Wnt 3a/AA control | 0.3354 | 24.4%

Reference: patent US20130337564A1, “Treatment of Pluripotent Cells” (Janssen Biotech, Inc., priority 2012, published 2013)
